The record followed here is ChEMBL document CHEMBL2057208, “Benzoylbenzimidazole-based selective inhibitors targeting Cryptosporidium parvum and Toxoplasma gondii calcium-dependent protein kinase-1” (Bioorg Med Chem Lett, 2012).

The source made the active and inactive calls. The rule behind the calls is not given here.

Assay [1] can be described thus: Inhibition of Cryptosporidium parvum CDPK1.
Assay [2] concerns the target Proto-oncogene tyrosine-protein kinase Src (Homo sapiens, UniProt P12931). The assay can be described thus: Inhibition of human SRC.
The subject of assay [3] is Cryptosporidium parvum. In words: Antiparasitic activity against Cryptosporidium parvum up to 1 uM. It counts as functional, organism-based.
The target of assay [4] is T1, Calmodulin-domain protein kinase 1 (Toxoplasma gondii, UniProt Q9BJF5).
T1 sequence (Q9BJF5 whole entry): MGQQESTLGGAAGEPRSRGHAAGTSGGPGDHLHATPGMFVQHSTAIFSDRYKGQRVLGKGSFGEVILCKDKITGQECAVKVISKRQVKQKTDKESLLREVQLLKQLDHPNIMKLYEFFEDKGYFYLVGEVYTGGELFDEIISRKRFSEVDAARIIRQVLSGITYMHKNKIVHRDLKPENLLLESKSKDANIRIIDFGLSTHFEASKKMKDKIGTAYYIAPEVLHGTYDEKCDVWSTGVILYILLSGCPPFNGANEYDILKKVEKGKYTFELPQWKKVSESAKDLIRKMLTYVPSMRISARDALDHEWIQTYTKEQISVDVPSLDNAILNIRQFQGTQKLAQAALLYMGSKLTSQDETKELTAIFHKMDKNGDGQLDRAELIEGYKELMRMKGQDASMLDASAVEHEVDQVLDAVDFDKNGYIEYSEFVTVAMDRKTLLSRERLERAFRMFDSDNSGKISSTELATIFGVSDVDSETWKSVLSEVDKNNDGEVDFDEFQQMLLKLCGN
The assay can be described thus: Inhibition of Toxoplasma gondii CDPK1.

In assay [5] the test system is HL-60. The assay can be described thus: cells. The conditions noted are these: Homo sapiens.
Description: Cytotoxicity against human HL60 cells after 48 to 72 hrs by Alamar blue assay
In assay [6] the target is Tyrosine-protein kinase ABL1 (Homo sapiens, UniProt P00519). In words: Inhibition of human ABL.
Assay [7] can be described thus: cells. The conditions noted are these: Homo sapiens, CRL8155.
Description: Cytotoxicity against human CRL8155 cells after 48 to 72 hrs by Alamar blue assay
Assay [8] deals with Toxoplasma gondii. The assay can be described thus: Antiparasitic activity against Toxoplasma gondii up to 1 uM. It counts as functional, organism-based.

Chain of Proto-oncogene tyrosine-protein kinase Src (P12931 2-536 limits assumed): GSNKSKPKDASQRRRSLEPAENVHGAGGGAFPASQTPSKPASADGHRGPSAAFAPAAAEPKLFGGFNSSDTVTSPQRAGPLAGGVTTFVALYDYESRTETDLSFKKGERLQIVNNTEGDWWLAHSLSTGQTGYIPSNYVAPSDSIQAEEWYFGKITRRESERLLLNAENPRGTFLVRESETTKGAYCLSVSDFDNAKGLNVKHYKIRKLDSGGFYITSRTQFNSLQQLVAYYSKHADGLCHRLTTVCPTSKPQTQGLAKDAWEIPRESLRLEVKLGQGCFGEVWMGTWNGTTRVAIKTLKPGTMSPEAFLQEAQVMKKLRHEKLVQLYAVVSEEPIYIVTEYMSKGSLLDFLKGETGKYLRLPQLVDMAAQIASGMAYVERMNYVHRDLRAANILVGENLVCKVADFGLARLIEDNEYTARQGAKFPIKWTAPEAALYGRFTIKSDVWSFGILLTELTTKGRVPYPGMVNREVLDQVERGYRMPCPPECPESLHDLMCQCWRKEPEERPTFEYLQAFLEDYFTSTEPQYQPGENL
Chain of Tyrosine-protein kinase ABL1 (P00519 whole entry): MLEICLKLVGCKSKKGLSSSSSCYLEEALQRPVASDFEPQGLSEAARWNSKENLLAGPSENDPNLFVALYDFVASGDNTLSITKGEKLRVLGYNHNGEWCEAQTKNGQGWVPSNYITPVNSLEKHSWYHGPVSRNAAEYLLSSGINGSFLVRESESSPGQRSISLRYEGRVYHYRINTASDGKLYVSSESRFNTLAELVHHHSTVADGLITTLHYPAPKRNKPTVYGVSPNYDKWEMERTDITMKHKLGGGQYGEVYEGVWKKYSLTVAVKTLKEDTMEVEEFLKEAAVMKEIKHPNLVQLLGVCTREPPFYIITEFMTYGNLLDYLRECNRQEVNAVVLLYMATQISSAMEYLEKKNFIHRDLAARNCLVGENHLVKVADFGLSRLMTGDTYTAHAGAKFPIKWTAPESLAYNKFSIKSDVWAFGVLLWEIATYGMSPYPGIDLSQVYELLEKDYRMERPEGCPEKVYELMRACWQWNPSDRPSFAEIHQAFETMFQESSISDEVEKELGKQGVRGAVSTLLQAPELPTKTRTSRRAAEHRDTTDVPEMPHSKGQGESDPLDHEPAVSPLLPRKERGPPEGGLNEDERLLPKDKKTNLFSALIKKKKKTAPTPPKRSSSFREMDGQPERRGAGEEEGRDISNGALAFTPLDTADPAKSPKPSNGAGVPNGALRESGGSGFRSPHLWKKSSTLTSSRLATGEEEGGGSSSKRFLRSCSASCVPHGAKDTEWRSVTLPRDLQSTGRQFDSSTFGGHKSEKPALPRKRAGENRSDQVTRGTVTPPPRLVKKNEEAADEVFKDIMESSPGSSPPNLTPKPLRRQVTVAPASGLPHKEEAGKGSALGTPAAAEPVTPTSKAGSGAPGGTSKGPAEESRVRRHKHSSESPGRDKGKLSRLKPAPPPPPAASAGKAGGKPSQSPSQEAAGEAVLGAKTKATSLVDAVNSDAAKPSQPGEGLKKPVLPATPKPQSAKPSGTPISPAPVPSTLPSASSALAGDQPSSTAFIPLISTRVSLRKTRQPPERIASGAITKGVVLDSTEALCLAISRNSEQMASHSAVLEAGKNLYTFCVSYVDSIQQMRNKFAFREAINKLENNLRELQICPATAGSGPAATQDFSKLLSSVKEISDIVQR

As to `CN1CCN(CCn2c(N)nc3ccc(C(=O)c4ccccc4)cc32)CC1`, the IC50 in assay [1] is 36 nM; in assay [2], greater than 10 µM; in assay [4], 43 nM; in assay [6], greater than 10 µM. The outcome in assay [3] and in assay [8] was inactive. Also, the EC50 in assay [5] and in assay [7] was greater than 30 µM each time.

Take `CN1CCC(CCn2c(N)nc3ccc(C(=O)c4ccccc4)cc32)CC1`: the IC50 in assay [1] was 26 nM; in assay [2], greater than 10 µM; in assay [4], 30 nM; in assay [6], greater than 10 µM. The outcome in assay [3] and in assay [8] was inactive. The concentration giving a half-maximal response (EC50) in assay [5] and in assay [7] was greater than 30 µM each time.

Take `Nc1nc2ccc(C(=O)c3ccccc3)cc2n1CC1CCNCC1`: the IC50 in assay [2] and in assay [6] was greater than 10 µM throughout. The outcome in assay [3] and in assay [8] was inactive. Further, the EC50 in assay [5] and in assay [7] was greater than 30 µM in each case.

For the molecule `Nc1nc2ccc(C(=O)c3ccccc3)cc2n1CC[C@@H]1CCCN1`, the IC50 in assay [1] was 30 nM; in assay [2], greater than 10 µM; in assay [4] it was 29 nM; in assay [6] it was greater than 10 µM. For the same molecule, the outcome in assay [3] and in assay [8] was inactive. Also, the EC50 in assay [5] and in assay [7] was greater than 30 µM each time.

With `O=C(NCCC1CCNCC1)Nc1nc2ccc(C(=O)c3ccccc3)cc2[nH]1`, the IC50 in assay [1] came to 180 nM; in assay [4], 130 nM; in assay [6], 0.1 µM. In addition, the result in assay [3] and in assay [8] was inactive. The EC50 in assay [5] and in assay [7] was greater than 30 µM throughout.

As for `COC(=O)Nc1nc2ccc(C(=O)c3ccccc3)cc2[nH]1` [MEBENDAZOLE], the values for the IC50 in assay [2], in assay [4] and in assay [6] were greater than 10 µM, 670 nM and 5 µM, respectively.

For `NCCC(=O)Nc1nc2ccc(C(=O)c3ccccc3)cc2n1CC1CCNCC1`, the IC50 in assay [1] is 860 nM; in assay [2], greater than 10 µM; in assay [4] it was 570 nM. For the same molecule, the outcome in assay [3] and in assay [8] was inactive. The EC50 in assay [5] and in assay [7] was greater than 30 µM throughout.

Regarding `Nc1nc2ccc(C(=O)c3ccccc3)cc2[nH]1`, the IC50 in assay [1] is 600 nM; in assay [2] it was greater than 10 µM; in assay [4], 230 nM. Moreover, the outcome in assay [3] and in assay [8] was inactive. In addition, the EC50 in assay [5] and in assay [7] was greater than 30 µM throughout.

Consider `Nc1nc2ccc(C(=O)c3ccccc3)cc2n1CCC1CCNCC1`, for which the half-inhibitory concentration (IC50) in assay [1] was 17 nM; in assay [2] it was greater than 10 µM; in assay [4] it was 20 nM; in assay [6], greater than 10 µM. Besides, the result in assay [3] and in assay [8] was inactive. Further, the EC50 in assay [5] and in assay [7] was greater than 30 µM each time.

Regarding `Nc1nc2ccc(C(=O)c3ccccc3)cc2n1CCN1CCCCC1`, the IC50 in assay [1] stood at 300 nM; in assay [4], 160 nM. The result in assay [3] and in assay [8] was inactive. In addition, the EC50 in assay [5] and in assay [7] was greater than 30 µM each time.

The term IC50 denotes the concentration that gives 50% inhibition. For orientation: EC50 means the concentration giving half of the maximal effect. Higher therefore signals a less potent agent.
